# Data: paper PMC8850458, “The AUTOTAC chemical biology platform for targeted protein degradation via the autophagy-lysosome system” (Nature Communications, 2022)
# “And” between values parts separate entries of the source, which are not always exact repeats. Equal entries are not always repeated. Where two headings read alike, the source gives them in different places.
# Columns and labels:
# [1] = target: T1, methionine aminopeptidase 2 (MetAP2) (Homo sapiens, UniProt P50579); experiment: Western blot degradation of MetAP2; type: cell-based; settings: 293T, 24 h
# T1 construct: Targeted autophagic degradation of endogenous oncoproteins by AUTOTAC; endogenous in cells; host or cells: HEK293 / HEK293T, U87-MG
# T1 sequence (P50579 whole entry): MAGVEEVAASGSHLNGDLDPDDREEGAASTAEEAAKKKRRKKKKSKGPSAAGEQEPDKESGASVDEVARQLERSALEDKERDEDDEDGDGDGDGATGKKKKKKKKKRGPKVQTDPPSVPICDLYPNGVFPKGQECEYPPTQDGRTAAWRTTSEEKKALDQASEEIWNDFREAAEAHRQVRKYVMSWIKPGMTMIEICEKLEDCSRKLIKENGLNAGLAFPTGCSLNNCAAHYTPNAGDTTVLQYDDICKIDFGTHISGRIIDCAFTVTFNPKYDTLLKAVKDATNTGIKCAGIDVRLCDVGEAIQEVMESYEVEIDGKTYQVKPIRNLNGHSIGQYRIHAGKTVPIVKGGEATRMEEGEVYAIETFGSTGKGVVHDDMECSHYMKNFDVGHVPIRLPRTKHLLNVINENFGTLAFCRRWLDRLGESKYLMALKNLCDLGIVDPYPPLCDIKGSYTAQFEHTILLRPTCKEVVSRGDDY
# Procedure: (§1) Adherent cells were washed with phosphate-buffered saline (PBS) and cell pellets were lysed in SDS-based sample buffer (277.8 mM Tris-HCI, pH 6.8, 4.4% LDS, 44.4% (v/v) glycerol) containing beta-mercaptoethanol. Alternatively, cell pellets or protein supernatants were lysed in 5X Laemmli sample buffer. Whole-cell lysates were separated using SDS-PAGE, and transferred onto polyvinyllidene difluoride membranes at 100 V for 2 h at 4 °C. The membrane was incubated with a blocking solution consisting 4% skim milk in PBS solution for 30 min at room temperature and incubated with primary antibodies overnight, followed by incubation with host-specific HRP-conjugated secondary antibodies (1:10000 dilution). For signal detection, the membrane was developed with a mixture of ECL solution (Thermo Fisher Scientific) using X-ray films. Densitometry of developed bands was measured and analyzed with ImageJ (NIH, Bethesda).
# [2] = test system: U87-MG glioblastoma cells; experiment: Wound healing assay in U87-MG cells; type: cell-based; set-up: wound area, single experiment / wound area, Average: unit not given here; settings: Fig. S4j
# Procedure: To analyze cell migration in two dimensions, U-87 MG or ACHN cells were plated to a monolayer. Cells were scratched with a sterile 10 μl pipette tip and the debris was removed using medium. Cells were treated with compounds and incubated for different time to monitor cell behavior. Photographs were obtained using a microscope at different time point.
# ACHN cells = experiment: WST-based cell viability assay in ACHN cells; settings: for WST assay viability, AVG % / WST assay raw reading / WST assay viability relative to con = 100: ACHN; for WST assay raw reading / WST assay viability relative to con = 100: duplicates
# LNCaP cells [3] = settings: human
# in vitro = settings: human
# LNCaP cells [4] = experiment: WST-based cell viability assay in LNCaP cells; settings: LNcaP, duplicates
# Ub^+ and p62^+ puncta = experiment: ICC of Ub (FK2) and p62 puncta in HeLa cells; type: cell-based; settings: Fig. 4i
# Procedure: Fig. 4 Targeted autophagic delivery and degradation of misfolded protein cargoes using AUTOTACs with aggregate-binding warhead. a A model illustrating the mode of action of aggregate-targeting AUTOTAC. b Chemical structures of PBA-1105, PBA-1106, Anle138b-F105 and PBA-1105b. c In vitro p62 oligomerization assay in HEK293T cells incubated with the indicated compounds in (b). d WB in HEK293T cells treated with MG132 (1 μM, 24 h), HCQ (10 μM, 24 h), PBA-1105, YTK-1105, and PBA (1 μM, 24 h). e Identical to (d), but with Anle-F105. f ICC of HeLa cells treated with HCQ (10 μM, 24 h), MG132 (2 μM, 18 h) or both in the presence of PBA-1106, YOK-1106 or PBA (1 μM, 24 h). Scale bar, 10 μm. g Quantification of (f) (n = 3, 50 cells). h ICC of HeLa cells treated with Anle138b-F105 (1 μM, 24 h). Scale bar, 10 μm. i Quantification of (h) (n = 3, 50 cells). When indicated, n = 3 biologically independent experiments each counting 50 cells. Data are presented as mean values ± SD where relevant. P-values (from a two-sided unpaired t test): ***P < 7.66E−05. Source data are provided with this paper.
# Cells were cultured on coverslips coated with poly-L-lysine (Sigma) to observe cellular localization of proteins. Using 4% paraformaldehyde in PBS (pH 7.4), the cells were fixed for 15 min at room temperature and washed three times for 5 min with PBS. After fixing, the cells were permeabilized with 0.5% Triton X-100 in PBS solution for 15 min and washed three times with PBS for 5 min. The cells were blocked containing 2% BSA in PBS solution for 1 h at room temperature. Subsequently, the cells were incubated with primary antibody diluted in 2% BSA/PBS solution overnight at 4 °C, followed by washing the cells three times for 10 min with PBS and incubated with Alexa Fluor-conjugated secondary antibody diluted in 2% BSA/PBS for 30 min at room temperature. Using a DAPI-containing mounting medium (Vector Laboratories), the coverslips were mounted on glass slides. Confocal images were taken by laser scanning confocal microscope 510 Meta (Zeiss) and analyzed by Zeiss LSM Image Browser (ver. 4.2.0.121). […] Quantification results are shown as mean ± S.D. or S.E.M. of three independent experiments
# tauP301L = tauP301L (Homo sapiens, UniProt P10636, P618L); experiment: WB degradation of tauP301L in SH-SY5Y-tauP301L cells; type: cell-based; settings: densitometry, dosage degradation, SH-SY5Y-Tau-TiFC; for Tau normalized to GAPDH and control, AVG %: average of N=3
# tauP301L, sequence (P10636 1-441 isoform P10636-8 P301L): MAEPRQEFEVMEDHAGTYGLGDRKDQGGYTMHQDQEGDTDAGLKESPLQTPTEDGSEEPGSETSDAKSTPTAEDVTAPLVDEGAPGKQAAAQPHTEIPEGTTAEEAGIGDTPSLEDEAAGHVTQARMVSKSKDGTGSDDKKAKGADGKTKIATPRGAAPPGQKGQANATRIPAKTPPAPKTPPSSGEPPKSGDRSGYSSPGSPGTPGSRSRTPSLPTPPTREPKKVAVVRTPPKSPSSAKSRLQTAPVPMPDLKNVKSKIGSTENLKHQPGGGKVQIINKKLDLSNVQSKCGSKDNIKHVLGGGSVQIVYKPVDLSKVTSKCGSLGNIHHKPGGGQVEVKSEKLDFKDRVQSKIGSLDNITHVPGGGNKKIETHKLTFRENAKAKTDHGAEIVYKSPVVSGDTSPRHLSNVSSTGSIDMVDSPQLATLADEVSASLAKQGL
# Procedure: as §1
# [5] = 4h, relative to 0h, con 63.7844
# [6] = 12h, relative to 0h, con 49.0497
# [7] = 24h, relative to 0h, con 11.2855
# [8] = WST assay viability relative to con = 100
smiles,measurement,setting,value
"CO[C@@H]1[C@H](OC(=O)/C=C/C=C/C=C/C=C/C(=O)O)CC[C@]2(CO2)[C@H]1[C@@]1(C)O[C@@H]1CC=C(C)C [Fumagillin, reference compound]","MetAP2 normalized to control, AVG %",[1]; 2.5uM,147.616%
same,"MetAP2 normalized to control, AVG %",[1]; 10uM,145.983%
COC1C(OC(=O)C=CC=CC=CC=CC(=O)NCCOCCOCCNCc2cccc(OCc3ccccc3)c2)CCC2(CO2)C1C1(C)OC1CC=C(C)C (stereo not shown) [fuma-105],"wound area, single experiment",[2]; 0h,1322200 and 1143900 and 1293400
same,"wound area, Average %",[2]; 0h (reference = 100),100%
same,"wound area, Average","[2]; 0h, con 1278325",1253167
same,"wound area, single experiment",[2]; 4h,1229909 and 1112400 and 1025300
same,"wound area, Average","[2]; 4h, con 815372",1122536
same,"wound area, Average %",[2]; [5],89.576%
same,"wound area, single experiment",[2]; 12h,999235 and 1073250 and 992572
same,"wound area, Average","[2]; 12h, con 627015",1021686
same,"wound area, Average %",[2]; [6],81.5283%
same,"wound area, single experiment",[2]; 24h,562341 and 671624 and 616277
same,"wound area, Average","[2]; 24h, con 144265",616747
same,"wound area, Average %",[2]; [7],49.2151%
"Oc1ccc(-c2c(-c3ccccc3)nn3c(C(F)(F)F)cc(C(F)(F)F)nc23)cc1 [PHTPP, reference compound]",IC50,"ACHN cells; ACHN cells, WST-based viability assay, read-out: cytotoxicity IC50",18 µM
same,"WST assay viability, AVG %",ACHN cells; 0.01uM,98.8656%
same,WST assay raw reading,ACHN cells; 0.01uM,1.014 and 0.955
same,WST assay viability relative to con = 100,ACHN cells; 0.01uM,102.269 and 95.4624
same,"WST assay viability, AVG %",ACHN cells; 0.1uM,95.5201%
same,WST assay raw reading,ACHN cells; 0.1uM,0.951 and 0.96
same,WST assay viability relative to con = 100,ACHN cells; 0.1uM,95.001 and 96.0392
same,"WST assay viability, AVG %",ACHN cells; 1uM,90.0981%
same,WST assay raw reading,ACHN cells; 1uM,0.95 and 0.867
same,WST assay viability relative to con = 100,ACHN cells; 1uM,94.8856 and 85.3105
same,"WST assay viability, AVG %",ACHN cells; 10uM,86.1757%
same,WST assay raw reading,ACHN cells; 10uM,0.866 and 0.883
same,WST assay viability relative to con = 100,ACHN cells; 10uM,85.1952 and 87.1563
same,"WST assay viability, AVG %",ACHN cells; 50uM,10.8441%
same,WST assay raw reading,ACHN cells; 50uM,0.239 and 0.204
same,WST assay viability relative to con = 100,ACHN cells; 50uM,12.8629 and 8.825
same,"WST assay viability, AVG %",ACHN cells; 100uM,2.365%
same,WST assay raw reading,ACHN cells; 100uM,0.151 and 0.145
same,WST assay viability relative to con = 100,ACHN cells; 100uM,2.711 and 2.019
COC1C(OC(=O)C=CC=CC=CC=CC(=O)O)CCC2(CO2)C1C1(C)OC1CC=C(C)C (stereo not shown) [fuma],"wound area, single experiment",[2]; 0h,1171666 and 1405232 and 1275616
same,"wound area, Average %",[2]; 0h (reference = 100),100%
same,"wound area, Average","[2]; 0h, con 1278325",1284171
same,"wound area, single experiment",[2]; 4h,1044299 and 1099925 and 1033344
same,"wound area, Average","[2]; 4h, con 815372",1059189
same,"wound area, Average %",[2]; [5],82.4804%
same,"wound area, single experiment",[2]; 12h,806233 and 764432
same,"wound area, Average","[2]; 12h, con 627015",778366
same,"wound area, Average %",[2]; [6],60.6123%
same,"wound area, single experiment",[2]; 24h,429520 and 509220
same,"wound area, Average","[2]; 24h, con 144265",482653
same,"wound area, Average %",[2]; [7],37.5848%
C=CC1(C)OC(=O)N(c2cc(Cl)cc(Cl)c2)C1=O (stereo not shown) [Vinclozolin],WST assay viability relative to con = 100,LNCaP cells [3]; 0.01 µM,103.812
same,WST assay viability relative to con = 100,LNCaP cells [3]; 0.1 µM,103.962
same,WST assay viability relative to con = 100,LNCaP cells [3]; 1 µM,97.4197
same,WST assay viability relative to con = 100,LNCaP cells [3]; 10 µM,103.712
same,WST assay viability relative to con = 100,LNCaP cells [3]; 50 µM,108.507
same,WST assay viability relative to con = 100,LNCaP cells [3]; 100 µM,100.466
same,viability at 0.01 µM,in vitro; [8],96.4%
same,viability at 0.1 µM,in vitro; [8],91.3%
same,viability at 1 µM,in vitro; [8],89.8%
same,viability at 10 µM,in vitro; [8],92.8%
same,viability at 50 µM,in vitro; [8],94.7%
same,viability at 100 µM,in vitro; [8],111%
same,viability at 0.01 µM,"in vitro; WST assay viability, AVG %",100%
same,viability at 0.1 µM,"in vitro; WST assay viability, AVG %",97.6%
same,viability at 1 µM,"in vitro; WST assay viability, AVG %",93.6%
same,viability at 10 µM,"in vitro; WST assay viability, AVG %",98.3%
same,viability at 50 µM,"in vitro; WST assay viability, AVG %",102%
same,viability at 100 µM,"in vitro; WST assay viability, AVG %",106%
same,WST assay raw reading,LNCaP cells [4]; 0.01uM,2.034 and 2.182
same,WST assay raw reading,LNCaP cells [4]; 0.1uM,1.931 and 2.185
same,WST assay raw reading,LNCaP cells [4]; 1uM,1.901 and 2.054
same,WST assay raw reading,LNCaP cells [4]; 10uM,1.962 and 2.18
same,WST assay raw reading,LNCaP cells [4]; 50uM,1.999 and 2.276
same,WST assay raw reading,LNCaP cells [4]; 100uM,2.333 and 2.115
Fc1ccc(COc2cccc(CNCCOCCOCCNc3cccc(-c4cc(-c5ccc6c(c5)OCO6)n[nH]4)c3)c2)cc1 [Anle.-F105],"FK2 (Ub) / p62 colocalization, AVG of cells per 50 cells",Ub^+ and p62^+ puncta; con vs Anle.-F105,44.6667
same,"FK2 (Ub) / p62 colocalization, percentage AVG",Ub^+ and p62^+ puncta; con vs Anle.-F105,89.3333 percentage
same,"FK2 (Ub) / p62 colocalization, cells counted per 50 cells (individual replicates)","Ub^+ and p62^+ puncta; con vs Anle.-F105, count out of 50 cells",44 and 42 and 48
same,"Tau normalized to GAPDH and control, AVG %",tauP301L; 1 nM,89.5946%
same,"Tau normalized to GAPDH and control, AVG %",tauP301L; 10 nM,39.4372%
same,"Tau normalized to GAPDH and control, AVG %",tauP301L; 100 nM,27.9865%
same,"Tau normalized to GAPDH and control, AVG %",tauP301L; 1 uM,22.4452%
same,"Tau normalized to GAPDH and control, AVG %",tauP301L; 2.5uM,20.2653%
same,remaining activity at 2.5 µM,"tauP301L; 2.5uM, read-out: (Tau normalized to GAPDH) normalized to control, percentage (individual replicates N=1, N=2, N=3)",14.5%
same,"Tau normalized to GAPDH and control, AVG %",tauP301L; 5uM,9.605%
same,remaining activity at 5 µM,"tauP301L; 5uM, read-out: (Tau normalized to GAPDH) normalized to control, percentage (individual replicates N=1, N=2, N=3)",9.88%
same,"Tau normalized to GAPDH and control, AVG %",tauP301L; 10uM,11.8682%
same,remaining activity at 10 µM,"tauP301L; 10uM, read-out: (Tau normalized to GAPDH) normalized to control, percentage (individual replicates N=1, N=2, N=3)",10.3%
